Laboratory results: patent US20140017165A1, “DNA REPAIR ENZYME INHIBITOR NANOPARTICLES AND USES THEREOF” (priority 2011, published 2014)

How the values were obtained:
[1] = Maximum tolerated dose (MTD) of wortmannin formulations in non-tumor-bearing mice; details: mouse, in vivo, other: injected, mg/kg of wortmannin, in cremophor solution or encapsulated in nanoparticle (2% w/w)
Method: MTD, defined as the highest possible dose resulting in no animal deaths and less than 20% weight loss was evaluated for wortmannin formulations. Non-tumor-bearing mice (NOD/SCID, C57BL/6, CB6F1 and CD1) were injected with varying amounts of wortmannin nanoparticle and wortmannin in cremophor normalized to mg wortmannin injected/kg of mice body weight. The animals were weighed and observed daily for any change in physical activity. Weight loss greater than 20% and/or lethargy were interpreted as indications of toxicity and the mice were immediately euthanized.
Table 2 compares the maximum tolerated dose (MTD) of wortmannin in cremophor and wortmannin nanoparticle in different mouse strains.

[2] = Toxicity profile (hematologic toxicity, hepatotoxicity) in CD1 mice after tail vein i.v. injection; type: in vivo; details: single tail vein i.v.; for Hematologic Toxicity: Monocytes: normal range 0.1-1.5; for Hematologic Toxicity: Lymphocytes: normal range 0.5-5; for Hematologic Toxicity: Granulocytes: normal range 1.2-8; for Hematologic Toxicity: WBC: normal range 3.5-10; for Hepatotoxicity: ALT / Hepatotoxicity: AST: plasma, normal range 40-50 U/L
Method: CD1 mice were given tail vein i.v. injection with different wortmannin formulations (wortmannin nanoparticle or wortmannin in cremophor) at the indicated doses (⅕^th the MTD or 1/10th the MTD). After 24 h, submandibular bleeding was performed. Blood (100-200 ul) was collected in heparin coated tubes to prevent coagulation. Whole blood samples were immediately submitted for blood toxicity to the Animal Clinical Laboratory Core Facility at UNC. For liver toxicity studies, blood samples were centrifuged (15000×g for 10 minutes) to separate blood cells from the plasma and samples were submitted for analysis.
Table 3 and 4 show the toxicity profile in mice of wortmannin in cremophor and wortmannin nanoparticle.
Table 3 and 4. Toxicity profile in CD1 mice post i.v. injection of wortmannin formulations. Mice were treated with indicated doses of wortmannin or wortmannin nanoparticle containing an equivalent dose of wortmannin (2% w/w). (Single tail vein i.v. injection, toxicity profile 3 d post injection).

[3] = cited from earlier work
cancer cells = details: Bae et al. 2007, FIG. 6; cited from earlier work
DNA-PK = DNA-PK (Homo sapiens, UniProt P78527); details: cited from earlier work
ATM = ATM (Homo sapiens, UniProt Q13315); details: cited from earlier work
[4] = 1/10th MTD of Wtmn (0.07 mg/kg)

Sequence of ATM (Q13315 whole entry, species assumed): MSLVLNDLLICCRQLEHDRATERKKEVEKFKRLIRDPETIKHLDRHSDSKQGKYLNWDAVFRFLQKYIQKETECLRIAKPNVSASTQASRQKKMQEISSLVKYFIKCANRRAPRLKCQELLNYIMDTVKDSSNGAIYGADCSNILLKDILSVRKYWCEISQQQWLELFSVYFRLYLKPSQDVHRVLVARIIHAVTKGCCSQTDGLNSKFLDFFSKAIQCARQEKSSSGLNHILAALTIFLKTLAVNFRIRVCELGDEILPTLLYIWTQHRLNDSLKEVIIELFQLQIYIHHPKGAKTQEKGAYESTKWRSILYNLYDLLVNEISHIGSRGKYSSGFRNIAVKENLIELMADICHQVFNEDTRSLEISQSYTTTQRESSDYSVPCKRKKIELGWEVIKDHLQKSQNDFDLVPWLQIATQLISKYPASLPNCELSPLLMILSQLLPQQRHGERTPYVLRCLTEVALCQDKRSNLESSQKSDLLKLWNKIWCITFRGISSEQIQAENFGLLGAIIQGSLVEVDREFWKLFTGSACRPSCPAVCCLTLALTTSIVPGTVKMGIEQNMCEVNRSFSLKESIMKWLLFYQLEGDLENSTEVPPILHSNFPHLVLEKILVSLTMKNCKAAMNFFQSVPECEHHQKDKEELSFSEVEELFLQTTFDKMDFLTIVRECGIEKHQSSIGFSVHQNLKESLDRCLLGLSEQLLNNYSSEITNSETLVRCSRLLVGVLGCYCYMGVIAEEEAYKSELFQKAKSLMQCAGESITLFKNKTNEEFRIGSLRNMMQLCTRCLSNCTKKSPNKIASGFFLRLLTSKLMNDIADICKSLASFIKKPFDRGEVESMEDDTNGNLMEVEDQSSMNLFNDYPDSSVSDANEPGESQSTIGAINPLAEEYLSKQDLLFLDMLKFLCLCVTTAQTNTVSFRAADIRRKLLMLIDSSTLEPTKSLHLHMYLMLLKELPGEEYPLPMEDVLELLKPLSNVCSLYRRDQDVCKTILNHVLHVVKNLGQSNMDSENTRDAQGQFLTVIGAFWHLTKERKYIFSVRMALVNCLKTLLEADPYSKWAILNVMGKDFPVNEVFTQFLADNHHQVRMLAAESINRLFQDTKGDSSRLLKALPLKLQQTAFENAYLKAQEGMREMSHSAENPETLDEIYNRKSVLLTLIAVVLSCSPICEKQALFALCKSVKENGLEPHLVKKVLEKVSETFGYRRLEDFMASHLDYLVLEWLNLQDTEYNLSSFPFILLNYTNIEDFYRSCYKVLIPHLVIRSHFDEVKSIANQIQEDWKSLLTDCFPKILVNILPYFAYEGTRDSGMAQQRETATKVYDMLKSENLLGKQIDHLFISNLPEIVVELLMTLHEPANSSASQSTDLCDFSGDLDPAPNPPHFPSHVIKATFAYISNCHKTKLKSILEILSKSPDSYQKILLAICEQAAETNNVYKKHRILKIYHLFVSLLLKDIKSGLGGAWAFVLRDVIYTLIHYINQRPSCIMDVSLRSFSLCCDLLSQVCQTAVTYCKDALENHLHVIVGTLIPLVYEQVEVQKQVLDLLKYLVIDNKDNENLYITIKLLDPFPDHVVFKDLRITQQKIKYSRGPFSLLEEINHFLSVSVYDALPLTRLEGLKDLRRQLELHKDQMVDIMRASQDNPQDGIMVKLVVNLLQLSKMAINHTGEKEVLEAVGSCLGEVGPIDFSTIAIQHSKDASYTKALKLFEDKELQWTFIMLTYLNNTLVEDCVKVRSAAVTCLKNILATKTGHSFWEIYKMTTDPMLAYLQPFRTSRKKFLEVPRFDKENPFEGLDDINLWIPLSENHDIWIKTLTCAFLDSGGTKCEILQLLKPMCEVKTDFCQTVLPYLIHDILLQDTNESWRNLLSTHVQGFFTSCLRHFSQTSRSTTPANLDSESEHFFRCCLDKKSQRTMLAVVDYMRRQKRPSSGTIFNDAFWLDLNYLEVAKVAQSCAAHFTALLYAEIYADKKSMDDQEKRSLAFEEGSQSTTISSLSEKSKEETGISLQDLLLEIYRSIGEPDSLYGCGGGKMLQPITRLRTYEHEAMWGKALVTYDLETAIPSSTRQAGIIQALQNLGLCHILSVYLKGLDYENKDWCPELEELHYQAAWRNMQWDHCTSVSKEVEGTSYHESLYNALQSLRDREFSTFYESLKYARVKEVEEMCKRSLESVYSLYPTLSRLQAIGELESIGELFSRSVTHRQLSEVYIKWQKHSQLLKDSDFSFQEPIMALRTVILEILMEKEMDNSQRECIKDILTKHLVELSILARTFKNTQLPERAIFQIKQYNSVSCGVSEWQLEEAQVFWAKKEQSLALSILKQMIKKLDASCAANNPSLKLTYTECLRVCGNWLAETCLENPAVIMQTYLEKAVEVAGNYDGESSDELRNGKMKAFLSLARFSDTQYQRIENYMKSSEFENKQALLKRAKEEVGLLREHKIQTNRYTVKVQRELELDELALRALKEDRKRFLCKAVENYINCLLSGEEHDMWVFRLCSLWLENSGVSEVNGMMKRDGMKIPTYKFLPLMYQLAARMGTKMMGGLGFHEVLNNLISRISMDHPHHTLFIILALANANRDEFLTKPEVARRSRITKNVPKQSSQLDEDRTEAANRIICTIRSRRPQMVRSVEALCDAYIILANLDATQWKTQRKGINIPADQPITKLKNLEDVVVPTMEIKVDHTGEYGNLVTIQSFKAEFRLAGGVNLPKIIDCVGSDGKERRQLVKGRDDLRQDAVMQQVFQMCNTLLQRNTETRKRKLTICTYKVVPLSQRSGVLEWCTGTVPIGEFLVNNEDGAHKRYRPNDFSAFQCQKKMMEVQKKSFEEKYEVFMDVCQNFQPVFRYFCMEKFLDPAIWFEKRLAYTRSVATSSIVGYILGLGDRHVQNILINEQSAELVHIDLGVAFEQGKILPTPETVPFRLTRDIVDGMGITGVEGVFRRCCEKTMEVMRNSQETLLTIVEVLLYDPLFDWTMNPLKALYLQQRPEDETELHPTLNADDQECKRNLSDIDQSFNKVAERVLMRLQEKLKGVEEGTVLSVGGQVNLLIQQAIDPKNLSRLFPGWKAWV

For COC[C@H]1OC(=O)c2coc3c2[C@@]1(C)C1=C(C3=O)[C@@H]2CCC(=O)[C@@]2(C)C[C@H]1OC(C)=O [Wortmannin, wortmannin], which MTD ([1]; C57BL/6 (Black) mice) is on record?
The MTD was 0.7 mg/kg.

What about the MTD ([1]; CB6F1 (Brown) mice) of the same molecule?
The MTD was 0.5 mg/kg.

And the MTD ([1]; CD1 (White) mice)?
Its MTD is 0.7 mg/kg.

What about the MTD ([1]; NOD/SCID mice) of the same molecule?
The MTD was 0.7 mg/kg.

What about the “Hematologic Toxicity: Monocytes” value ([2]; 1/5th MTD of Wtmn (0.14 mg/kg)) of the same molecule?
Its value is 0.55 ± 0.07 103/μl.

What about the “Hematologic Toxicity: Lymphocytes” value ([2]; 1/5th MTD of Wtmn (0.14 mg/kg)) of the same molecule?
Its value is 0.4 ± 0.42 103/μl.

What about the “Hematologic Toxicity: Granulocytes” value ([2]; 1/5th MTD of Wtmn (0.14 mg/kg)) of the same molecule?
Its value is 0.8 ± 0.14 103/μl.

And the “Hematologic Toxicity: WBC” value ([2]; 1/5th MTD of Wtmn (0.14 mg/kg))?
Its value is 2.8 ± 0.28 103/μl.

And the “Hepatotoxicity: ALT” value ([2]; 1/5th MTD of Wtmn (0.14 mg/kg))?
The value was 134 ± 17 U/L.

And the “Hepatotoxicity: AST” value ([2]; 1/5th MTD of Wtmn (0.14 mg/kg))?
The value was 44 ± 3 U/L.

And the “Hematologic Toxicity: Monocytes” value [2, 4]?
Its value is 0.8 ± 0.42 103/μl.

And the “Hematologic Toxicity: Lymphocytes” value [2, 4]?
Its value is 0.9 ± 0.28 103/μl.

And the “Hematologic Toxicity: Granulocytes” value [2, 4]?
The value was 2.4 ± 0.11 103/μl.

What about the “Hematologic Toxicity: WBC” value [2, 4] of the same molecule?
The value was 4.3 ± 0.13 103/μl.

And the “Hepatotoxicity: ALT” value [2, 4]?
The value was 64 ± 11 U/L.

What about the “Hepatotoxicity: AST” value [2, 4] of the same molecule?
Its value is 40 ± 7 U/L.

What about the half-life in serum [3] of the same molecule?
Its half-life in serum is “approximately 10 minutes”.

What about the “cytotoxicity against cancer cells” value (cancer cells) of the same molecule?
The value was “unexpectedly low cytotoxicity”.

With O=c1cc(N2CCOCC2)oc2c(-c3cccc4c3sc3ccccc34)cccc12 [NU7441] as the molecule, how does the IC50 (DNA-PK) read?
The IC50 was 13 nM.

Which “inhibits ATM” value (ATM) does the source give for O=c1cc(-c2cccc3c2Sc2ccccc2S3)oc(N2CCOCC2)c1 [KU-55933, 2-morpholin-4-yl-6-thianthren-1-yl-pyran-4-one] here?
The value was “low nanomolar concentrations”.
